Experimental data reported in ChEMBL document CHEMBL4804284.
The source made the active and inactive calls. No cut-off for these calls is given here.

Experiments:
[1] = target: Tyrosine-protein kinase ITK/TSK (Homo sapiens) (UniProt Q08881); assay: Inhibition of DNA-tagged human ITK assessed as percent of control at 50000 nM by qPCR analysis relative to control; parameters: scale not given: the % may be the effect or the level left
[2] = target: Interleukin-1 receptor-associated kinase 4 (Homo sapiens) (UniProt Q9NWZ3); assay: Inhibition of DNA-tagged human IRAK4 assessed as percent of control at 50000 nM by qPCR analysis relative to control; parameters: scale not given: the % may be the effect or the level left
[3] = target: Homeodomain-interacting protein kinase 2 (Homo sapiens) (UniProt Q9H2X6); assay: Inhibition of DNA-tagged human HIPK2 assessed as percent of control at 50000 nM by qPCR analysis relative to control; parameters: scale not given: the % may be the effect or the level left
[4] = target: Mitogen-activated protein kinase 4 (Homo sapiens) (UniProt P31152); assay: Inhibition of DNA-tagged human ERK4 assessed as percent of control at 50000 nM by qPCR analysis relative to control; parameters: scale not given: the % may be the effect or the level left
[5] = target: Mitogen-activated protein kinase 3 (Homo sapiens) (UniProt P27361); assay: Inhibition of DNA-tagged human ERK1 assessed as percent of control at 50000 nM by qPCR analysis relative to control; parameters: scale not given: the % may be the effect or the level left
[6] = target: Receptor tyrosine-protein kinase erbB-4 (Homo sapiens) (UniProt Q15303); assay: Inhibition of DNA-tagged human ERBB4 assessed as percent of control at 50000 nM by qPCR analysis relative to control; parameters: scale not given: the % may be the effect or the level left
[7] = target: Ephrin type-B receptor 3 (Homo sapiens) (UniProt P54753); assay: Inhibition of DNA-tagged human EPHB3 assessed as percent of control at 50000 nM by qPCR analysis relative to control; parameters: scale not given: the % may be the effect or the level left
[8] = target: Ephrin type-A receptor 7 (Homo sapiens) (UniProt Q15375); assay: Inhibition of DNA-tagged human EPHA7 assessed as percent of control at 50000 nM by qPCR analysis relative to control; parameters: scale not given: the % may be the effect or the level left
[9] = test system: Epidermal growth factor receptor (Homo sapiens), P00533 [T790M]; assay: Inhibition of DNA-tagged human EGFR T790M mutant assessed as percent of control at 50000 nM by qPCR analysis relative to control; parameters: scale not given: the % may be the effect or the level left
[10] = target: Serine/threonine-protein kinase DCLK3 (Homo sapiens) (UniProt Q9C098); assay: Inhibition of DNA-tagged human DCAMKL3 assessed as percent of control at 50000 nM by qPCR analysis relative to control; parameters: scale not given: the % may be the effect or the level left
[11] = target: Death-associated protein kinase 3 (Homo sapiens) (UniProt O43293); assay: Inhibition of DNA-tagged human DAPK3 assessed as percent of control at 50000 nM by qPCR analysis relative to control; parameters: scale not given: the % may be the effect or the level left
[12] = target: Citron Rho-interacting kinase (Homo sapiens) (UniProt O14578); assay: Inhibition of DNA-tagged human CIT assessed as percent of control at 50000 nM by qPCR analysis relative to control; parameters: scale not given: the % may be the effect or the level left
[13] = target: Cyclin-dependent kinase 7 (Homo sapiens) (UniProt P50613); assay: Inhibition of DNA-tagged human CDK7 assessed as percent of control at 50000 nM by qPCR analysis relative to control; parameters: scale not given: the % may be the effect or the level left
[14] = target: Calcium/calmodulin-dependent protein kinase type IV (Homo sapiens) (UniProt Q16566); assay: Inhibition of DNA-tagged human CAMK4 assessed as percent of control at 50000 nM by qPCR analysis relative to control; parameters: scale not given: the % may be the effect or the level left
[15] = target: Activin receptor type-2A (Homo sapiens) (UniProt P27037); assay: Inhibition of DNA-tagged human ACVR2A assessed as percent of control at 50000 nM by qPCR analysis relative to control; parameters: scale not given: the % may be the effect or the level left
[16] = test system: Tyrosine-protein kinase ABL1 (Homo sapiens), P00519 [T315I]; assay: Inhibition of DNA-tagged non-phosphorylated human ABL1 T315I mutant assessed as percent of control at 50000 nM by qPCR analysis relative to control; parameters: scale not given: the % may be the effect or the level left
MV4-11 = assay: Cytotoxicity against human MV4-11 cells expressing FLT3-ITD at 0.1-100 uM assessed as decrease in cell viability relative to control; format: functional, cell-based
[17] = test system: Mast/stem cell growth factor receptor Kit (Homo sapiens), P10721 [A829P]; assay: Inhibition of DNA-tagged human KIT A829P mutant assessed as percent of control at 50000 nM by qPCR analysis relative to control; parameters: scale not given: the % may be the effect or the level left
[18] = test system: Mast/stem cell growth factor receptor Kit (Homo sapiens), P10721 [D816H]; assay: Inhibition of DNA-tagged human KIT D816H mutant assessed as percent of control at 50000 nM by qPCR analysis relative to control; parameters: scale not given: the % may be the effect or the level left
[19] = target: Serine/threonine-protein kinase LATS2 (Homo sapiens) (UniProt Q9NRM7); assay: Inhibition of DNA-tagged human LATS2 assessed as percent of control at 50000 nM by qPCR analysis relative to control; parameters: scale not given: the % may be the effect or the level left
[20] = target: LIM domain kinase 1 (Homo sapiens) (UniProt P53667); assay: Inhibition of DNA-tagged human LIMK1 assessed as percent of control at 50000 nM by qPCR analysis relative to control; parameters: scale not given: the % may be the effect or the level left
[21] = target: Serine/threonine-protein kinase NIM1 (Homo sapiens) (UniProt Q8IY84); assay: Inhibition of DNA-tagged human NIM1 assessed as percent of control at 50000 nM by qPCR analysis relative to control; parameters: scale not given: the % may be the effect or the level left
[22] = target: Serine/threonine-protein kinase PAK 6 (Homo sapiens) (UniProt Q9NQU5); assay: Inhibition of DNA-tagged human PAK6 assessed as percent of control at 50000 nM by qPCR analysis relative to control; parameters: scale not given: the % may be the effect or the level left
[23] = target: Serine/threonine-protein kinase PknB (Mycobacterium tuberculosis) (UniProt P9WI81); assay: Inhibition of DNA-tagged Mycobacterium tuberculosis PKNB assessed as percent of control at 50000 nM by qPCR analysis relative to control; parameters: scale not given: the % may be the effect or the level left
[24] = target: Serine/threonine-protein kinase RIO3 (Homo sapiens) (UniProt O14730); assay: Inhibition of DNA-tagged human RIOK3 assessed as percent of control at 50000 nM by qPCR analysis relative to control; parameters: scale not given: the % may be the effect or the level left
[25] = target: Receptor-interacting serine/threonine-protein kinase 2 (Homo sapiens) (UniProt O43353); assay: Inhibition of DNA-tagged human RIPK2 assessed as percent of control at 50000 nM by qPCR analysis relative to control; parameters: scale not given: the % may be the effect or the level left
[26] = target: Ribosomal protein S6 kinase alpha-5 (Homo sapiens) (UniProt O75582); assay: Inhibition of DNA-tagged human N-terminal RPS6KA5 kinase domain 1 assessed as percent of control at 50000 nM by qPCR analysis relative to control; parameters: scale not given: the % may be the effect or the level left
[27] = target: Serine/threonine-protein kinase 36 (Homo sapiens) (UniProt Q9NRP7); assay: Inhibition of DNA-tagged human STK36 assessed as percent of control at 50000 nM by qPCR analysis relative to control; parameters: scale not given: the % may be the effect or the level left
[28] = target: Serine/threonine-protein kinase tousled-like 1 (Homo sapiens) (UniProt Q9UKI8); assay: Inhibition of DNA-tagged human TLK1 assessed as percent of control at 50000 nM by qPCR analysis relative to control; parameters: scale not given: the % may be the effect or the level left
[29] = target: Mitogen-activated protein kinase kinase kinase 19 (Homo sapiens) (UniProt Q56UN5); assay: Inhibition of DNA-tagged human YSK4 assessed as percent of control at 50000 nM by qPCR analysis relative to control; parameters: scale not given: the % may be the effect or the level left

Mitogen-activated protein kinase 3 (Homo sapiens), sequence (P27361 whole entry): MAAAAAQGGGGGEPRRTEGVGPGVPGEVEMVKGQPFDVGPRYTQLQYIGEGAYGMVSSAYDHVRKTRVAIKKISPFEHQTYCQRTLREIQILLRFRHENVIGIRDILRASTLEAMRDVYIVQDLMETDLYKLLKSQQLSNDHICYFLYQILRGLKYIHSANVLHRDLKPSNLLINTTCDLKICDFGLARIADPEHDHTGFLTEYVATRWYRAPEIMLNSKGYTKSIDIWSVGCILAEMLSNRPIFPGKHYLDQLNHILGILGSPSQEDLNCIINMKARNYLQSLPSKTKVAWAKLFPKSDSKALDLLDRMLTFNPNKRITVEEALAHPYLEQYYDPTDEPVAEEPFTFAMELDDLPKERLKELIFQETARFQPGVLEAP
Calcium/calmodulin-dependent protein kinase type IV (Homo sapiens), sequence (Q16566 whole entry): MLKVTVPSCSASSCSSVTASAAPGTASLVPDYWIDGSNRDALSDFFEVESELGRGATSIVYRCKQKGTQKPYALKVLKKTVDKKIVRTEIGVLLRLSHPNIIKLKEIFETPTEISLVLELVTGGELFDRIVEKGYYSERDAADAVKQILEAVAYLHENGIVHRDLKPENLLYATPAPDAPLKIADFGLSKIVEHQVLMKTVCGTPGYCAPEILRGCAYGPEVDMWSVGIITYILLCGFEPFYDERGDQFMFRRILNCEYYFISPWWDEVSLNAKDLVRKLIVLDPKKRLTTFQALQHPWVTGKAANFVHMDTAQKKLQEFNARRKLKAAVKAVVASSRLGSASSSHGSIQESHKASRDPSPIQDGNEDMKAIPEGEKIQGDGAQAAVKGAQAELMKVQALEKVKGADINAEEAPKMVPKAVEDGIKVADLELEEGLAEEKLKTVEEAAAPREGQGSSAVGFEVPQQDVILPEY
Ribosomal protein S6 kinase alpha-5 (Homo sapiens), sequence (O75582 whole entry, looked up, the tested form may be a part): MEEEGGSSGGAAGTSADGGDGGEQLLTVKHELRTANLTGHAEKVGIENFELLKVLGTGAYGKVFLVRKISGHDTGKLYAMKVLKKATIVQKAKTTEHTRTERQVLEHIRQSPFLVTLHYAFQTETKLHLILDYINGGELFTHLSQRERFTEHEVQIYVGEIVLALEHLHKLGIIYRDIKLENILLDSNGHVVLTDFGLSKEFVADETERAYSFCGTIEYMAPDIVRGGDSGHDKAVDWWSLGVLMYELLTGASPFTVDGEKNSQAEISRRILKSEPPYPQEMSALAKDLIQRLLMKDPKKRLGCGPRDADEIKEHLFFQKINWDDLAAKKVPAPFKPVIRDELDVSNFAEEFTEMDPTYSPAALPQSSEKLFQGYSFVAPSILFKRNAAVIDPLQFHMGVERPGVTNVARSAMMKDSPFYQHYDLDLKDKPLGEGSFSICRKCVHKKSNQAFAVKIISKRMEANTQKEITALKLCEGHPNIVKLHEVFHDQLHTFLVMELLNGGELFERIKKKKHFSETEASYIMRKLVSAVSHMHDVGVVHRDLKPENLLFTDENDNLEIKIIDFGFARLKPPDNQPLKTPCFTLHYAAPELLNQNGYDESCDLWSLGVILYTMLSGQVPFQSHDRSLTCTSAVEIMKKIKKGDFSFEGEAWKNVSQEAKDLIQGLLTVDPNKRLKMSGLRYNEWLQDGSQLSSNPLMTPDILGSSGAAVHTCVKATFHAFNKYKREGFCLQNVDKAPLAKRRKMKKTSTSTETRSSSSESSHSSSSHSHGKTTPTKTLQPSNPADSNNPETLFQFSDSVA
Serine/threonine-protein kinase NIM1 (Homo sapiens), sequence (Q8IY84 whole entry): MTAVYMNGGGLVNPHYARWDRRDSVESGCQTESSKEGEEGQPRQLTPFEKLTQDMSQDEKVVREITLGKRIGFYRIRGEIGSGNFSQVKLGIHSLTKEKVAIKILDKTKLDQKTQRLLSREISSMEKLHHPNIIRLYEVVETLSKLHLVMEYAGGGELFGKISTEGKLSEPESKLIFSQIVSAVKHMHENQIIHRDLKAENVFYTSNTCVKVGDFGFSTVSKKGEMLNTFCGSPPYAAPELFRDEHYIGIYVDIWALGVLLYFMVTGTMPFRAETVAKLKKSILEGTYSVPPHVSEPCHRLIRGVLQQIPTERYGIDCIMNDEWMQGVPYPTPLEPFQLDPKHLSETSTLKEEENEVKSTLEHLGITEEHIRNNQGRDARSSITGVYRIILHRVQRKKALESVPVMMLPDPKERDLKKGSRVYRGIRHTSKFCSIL
Serine/threonine-protein kinase 36 (Homo sapiens), sequence (Q9NRP7 whole entry): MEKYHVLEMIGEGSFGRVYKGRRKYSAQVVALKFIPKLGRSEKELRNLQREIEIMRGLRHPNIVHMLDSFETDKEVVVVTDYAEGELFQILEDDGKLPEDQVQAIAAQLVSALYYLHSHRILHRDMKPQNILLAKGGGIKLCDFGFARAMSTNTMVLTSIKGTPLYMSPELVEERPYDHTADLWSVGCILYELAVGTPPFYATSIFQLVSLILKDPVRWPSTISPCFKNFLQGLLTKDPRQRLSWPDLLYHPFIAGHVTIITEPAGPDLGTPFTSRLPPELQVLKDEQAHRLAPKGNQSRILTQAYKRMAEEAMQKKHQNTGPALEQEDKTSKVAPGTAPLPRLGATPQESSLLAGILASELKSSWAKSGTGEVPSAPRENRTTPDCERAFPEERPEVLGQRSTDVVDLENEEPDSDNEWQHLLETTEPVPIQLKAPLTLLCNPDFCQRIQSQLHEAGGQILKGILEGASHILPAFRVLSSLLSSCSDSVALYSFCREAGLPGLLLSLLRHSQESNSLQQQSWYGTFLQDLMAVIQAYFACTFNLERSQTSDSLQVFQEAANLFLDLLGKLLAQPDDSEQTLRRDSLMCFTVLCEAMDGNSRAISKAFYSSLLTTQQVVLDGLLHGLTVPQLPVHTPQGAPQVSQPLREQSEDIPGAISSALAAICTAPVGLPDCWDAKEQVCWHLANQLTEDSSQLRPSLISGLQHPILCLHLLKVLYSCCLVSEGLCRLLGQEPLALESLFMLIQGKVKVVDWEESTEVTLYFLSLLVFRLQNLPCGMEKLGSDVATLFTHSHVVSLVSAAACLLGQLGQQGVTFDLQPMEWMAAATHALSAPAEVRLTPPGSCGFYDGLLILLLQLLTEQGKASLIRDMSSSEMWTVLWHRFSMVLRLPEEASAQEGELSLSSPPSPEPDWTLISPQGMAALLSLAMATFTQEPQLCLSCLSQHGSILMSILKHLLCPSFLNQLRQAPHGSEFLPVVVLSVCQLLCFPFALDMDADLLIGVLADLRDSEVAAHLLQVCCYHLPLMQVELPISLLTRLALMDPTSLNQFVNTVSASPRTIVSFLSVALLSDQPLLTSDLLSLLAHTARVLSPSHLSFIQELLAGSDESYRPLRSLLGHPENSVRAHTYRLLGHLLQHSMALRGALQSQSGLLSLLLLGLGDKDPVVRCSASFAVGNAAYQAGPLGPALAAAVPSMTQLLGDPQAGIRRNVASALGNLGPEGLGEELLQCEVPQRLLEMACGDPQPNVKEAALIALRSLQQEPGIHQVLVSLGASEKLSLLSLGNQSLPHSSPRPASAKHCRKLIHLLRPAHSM
Serine/threonine-protein kinase RIO3 (Homo sapiens), sequence (O14730 whole entry): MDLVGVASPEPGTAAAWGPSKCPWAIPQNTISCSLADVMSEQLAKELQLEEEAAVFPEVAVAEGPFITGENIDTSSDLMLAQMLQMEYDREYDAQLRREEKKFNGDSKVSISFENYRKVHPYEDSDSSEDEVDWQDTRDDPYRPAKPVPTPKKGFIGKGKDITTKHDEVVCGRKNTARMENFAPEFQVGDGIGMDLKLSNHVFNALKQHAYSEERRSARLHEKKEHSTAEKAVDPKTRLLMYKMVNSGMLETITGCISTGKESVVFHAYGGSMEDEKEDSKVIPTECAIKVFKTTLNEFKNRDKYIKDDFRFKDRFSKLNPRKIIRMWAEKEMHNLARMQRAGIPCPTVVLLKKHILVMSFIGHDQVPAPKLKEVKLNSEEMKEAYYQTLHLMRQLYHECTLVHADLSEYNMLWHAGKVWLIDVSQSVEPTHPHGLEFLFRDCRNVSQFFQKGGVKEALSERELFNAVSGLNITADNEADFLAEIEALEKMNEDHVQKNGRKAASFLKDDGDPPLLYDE
Mitogen-activated protein kinase 4 (Homo sapiens), sequence (P31152 whole entry): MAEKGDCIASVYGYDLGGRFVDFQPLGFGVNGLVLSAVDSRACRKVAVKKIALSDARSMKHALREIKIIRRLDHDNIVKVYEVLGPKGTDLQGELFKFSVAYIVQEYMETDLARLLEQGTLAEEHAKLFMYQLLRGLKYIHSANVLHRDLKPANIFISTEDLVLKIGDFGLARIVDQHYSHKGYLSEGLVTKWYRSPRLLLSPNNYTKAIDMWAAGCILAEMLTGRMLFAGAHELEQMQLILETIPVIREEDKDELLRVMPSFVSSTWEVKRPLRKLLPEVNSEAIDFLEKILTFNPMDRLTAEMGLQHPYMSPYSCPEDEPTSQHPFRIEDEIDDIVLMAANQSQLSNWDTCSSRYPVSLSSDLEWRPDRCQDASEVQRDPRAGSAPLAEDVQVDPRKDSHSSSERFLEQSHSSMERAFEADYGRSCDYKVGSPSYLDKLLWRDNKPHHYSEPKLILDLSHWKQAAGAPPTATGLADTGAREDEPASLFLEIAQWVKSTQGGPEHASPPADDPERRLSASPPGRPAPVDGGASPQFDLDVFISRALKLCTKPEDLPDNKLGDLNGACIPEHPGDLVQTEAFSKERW
Death-associated protein kinase 3 (Homo sapiens), sequence (O43293 whole entry, looked up): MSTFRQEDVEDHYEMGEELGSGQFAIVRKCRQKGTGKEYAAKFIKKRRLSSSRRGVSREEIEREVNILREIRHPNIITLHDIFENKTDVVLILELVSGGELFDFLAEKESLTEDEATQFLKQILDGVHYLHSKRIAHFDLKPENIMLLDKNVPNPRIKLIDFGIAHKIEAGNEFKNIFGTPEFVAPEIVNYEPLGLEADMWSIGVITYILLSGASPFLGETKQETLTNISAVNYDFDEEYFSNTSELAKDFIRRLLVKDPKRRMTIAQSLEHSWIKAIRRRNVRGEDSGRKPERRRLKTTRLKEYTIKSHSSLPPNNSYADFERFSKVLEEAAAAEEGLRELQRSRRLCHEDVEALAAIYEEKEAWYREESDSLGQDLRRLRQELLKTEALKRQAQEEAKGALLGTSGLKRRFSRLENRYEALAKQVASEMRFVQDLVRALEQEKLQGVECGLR

SMILES: CN1C(=O)/C(=C2/C(=O)Nc3ccccc32)c2ccccc21
- Activity [1]: 78%
- Activity [2]: 75%
- Activity [3]: 66%
- Activity [4]: 86%
- Activity [5]: 100%
- Activity [6]: 88%
- Activity [7]: 90%
- Activity [8]: 100%
- Activity [9]: 96%
- Activity [10]: 99%
- Activity [11]: 93%
- Activity [12]: 78%
- Activity [13]: 100%
- Activity [14]: 88%
- Activity [15]: 99%
- Activity [16]: 94%
- Activity (MV4-11): Active
- Activity [17]: 63%
- Activity [18]: 75%
- Activity [19]: 90%
- Activity [20]: 84%
- Activity [21]: 86%
- Activity [22]: 100%
- Activity [23]: 100%
- Activity [24]: 89%
- Activity [25]: 100%
- Activity [26]: 100%
- Activity [27]: 90%
- Activity [28]: 81%
- Activity [29]: 91%
